Results taken from ChEMBL document CHEMBL1201862, “PubChem BioAssay data set” (2004).
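Briefly, cells in 96-well plates were exposed to five compound concentrations for 48 h, and endpoints were estimated by linear interpolation. GI50 is the concentration that inhibits growth by half.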 Calls of active or inactive are those of the source. No stated cut-off is given here; in the data, active = GI50 up to about 1.1 µM and inactive = higher.

Legend:
Assay in all cases: inhibition of tumour cell growth, NCI panel, 48 h
786-0 = test system: 786-0
A498 = test system: A498
A549 = test system: A549
ACHN = test system: ACHN
CAKI-1 = test system: CAKI-1
CCRF-CEM = test system: CCRF-CEM
COLO 205 = test system: COLO 205
DLD-1 = test system: DLD-1
DMS-114 = test system: DMS-114
DMS-273 = test system: DMS-273
EKVX = test system: EKVX
HCC 2998 = test system: HCC 2998
HCT-116 = test system: HCT-116
HCT-15 = test system: HCT-15
HL-60 = test system: HL-60
HOP-18 = test system: HOP-18
HOP-62 = test system: HOP-62
HT-29 = test system: HT-29
IGROV-1 = test system: IGROV-1
K562 = test system: K562
KM-20L2 = test system: KM-20L2
KM12 = test system: KM12
LXFL 529 = test system: LXFL 529
M14 = test system: M14
M19-MEL = test system: M19-MEL
MOLT-4 = test system: MOLT-4
Malme-3M = test system: Malme-3M
NCI-H23 = test system: NCI-H23
NCI-H460 = test system: NCI-H460
NCI-H522 = test system: NCI-H522
OVCAR-3 = test system: OVCAR-3
OVCAR-4 = test system: OVCAR-4
OVCAR-8 = test system: OVCAR-8
RPMI-8226 = test system: RPMI-8226
RXF 393 = test system: RXF 393
RXF 631 = test system: RXF 631
SF-268 = test system: SF-268
SF-295 = test system: SF-295
SF-539 = test system: SF-539
SK-MEL-28 = test system: SK-MEL-28
SK-MEL-2 = test system: SK-MEL-2
SK-MEL-5 = test system: SK-MEL-5
SK-OV-3 = test system: SK-OV-3
SN12C = test system: SN12C
SNB-19 = test system: SNB-19
SNB-75 = test system: SNB-75
SNB-78 = test system: SNB-78
SW-620 = test system: SW-620
TK-10 = test system: TK-10
U-251 = test system: U-251
UACC-257 = test system: UACC-257
UACC-62 = test system: UACC-62
UO-31 = test system: UO-31
XF498 = test system: XF498
HOP-92 = test system: HOP-92
LOX IMVI = test system: LOX IMVI
NCI-H226 = test system: NCI-H226
OVCAR-5 = test system: OVCAR-5
SR = test system: SR

## N#Cc1cc(NC(=O)c2ccccc2)c(=O)n2c1[nH]c1ccccc12
786-0
  GI50: 37.2 µM (inactive)
A498
  GI50: 22.7 µM (inactive)
A549
  GI50: 24.5 µM (inactive)
ACHN
  GI50: 29.9 µM (inactive)
CAKI-1
  GI50: 35.9 µM (inactive)
CCRF-CEM
  GI50: 37.8 µM (inactive)
COLO 205
  GI50: 31.6 µM (inactive)
DLD-1
  GI50: 28.9 µM (inactive)
DMS-114
  GI50: 23 µM (inactive)
DMS-273
  GI50: 30.1 µM (inactive)
EKVX
  GI50: 36.3 µM (inactive)
HCC 2998
  GI50: 28.8 µM (inactive)
HCT-116
  GI50: 21.4 µM (inactive)
HCT-15
  GI50: 31 µM
HL-60
  GI50: 26.4 µM (inactive)
HOP-18
  GI50: 7.45 µM (inactive)
HOP-62
  GI50: 24.5 µM (inactive)
HT-29
  GI50: 48.5 µM (inactive)
IGROV-1
  GI50: 24.5 µM (inactive)
K562
  GI50: 31.7 µM (inactive)
KM-20L2
  GI50: 32.7 µM (inactive)
KM12
  GI50: 43.9 µM (inactive)
LXFL 529
  GI50: 33 µM (inactive)
M14
  GI50: 27.3 µM (inactive)
M19-MEL
  GI50: 30.1 µM (inactive)
MOLT-4
  GI50: 29.6 µM (inactive)
Malme-3M
  GI50: 23.9 µM (inactive)
NCI-H23
  GI50: 20 µM (inactive)
NCI-H460
  GI50: 33 µM (inactive)
NCI-H522
  GI50: 11 µM (inactive)
OVCAR-3
  GI50: 28.2 µM (inactive)
OVCAR-4
  GI50: 27 µM (inactive)
OVCAR-8
  GI50: 38.3 µM (inactive)
RPMI-8226
  GI50: 11.7 µM (inactive)
RXF 393
  GI50: 13.6 µM (inactive)
RXF 631
  GI50: 46.9 µM (inactive)
SF-268
  GI50: 43.1 µM (inactive)
SF-295
  GI50: 71 µM (inactive)
SF-539
  GI50: 21.5 µM (inactive)
SK-MEL-28
  GI50: 21.6 µM (inactive)
SK-MEL-2
  GI50: 32.1 µM (inactive)
SK-MEL-5
  GI50: 12.7 µM (inactive)
SK-OV-3
  GI50: 28.8 µM (inactive)
SN12C
  GI50: 29.1 µM (inactive)
SNB-19
  GI50: 23.4 µM (inactive)
SNB-75
  GI50: 25.9 µM (inactive)
SNB-78
  GI50: 35 µM (inactive)
SW-620
  GI50: 39 µM (inactive)
TK-10
  GI50: 22.2 µM (inactive)
U-251
  GI50: 26.9 µM (inactive)
UACC-257
  GI50: 33 µM (inactive)
UACC-62
  GI50: 17.4 µM (inactive)
UO-31
  GI50: 18.3 µM (inactive)
XF498
  GI50: 31.4 µM (inactive)

## O=c1[nH]c(Br)nc2c(Br)c[nH]c12
786-0
  GI50: > 100 µM (inactive)
A498
  GI50: > 100 µM (inactive)
A549
  GI50: > 100 µM (inactive)
ACHN
  GI50: > 100 µM (inactive)
CAKI-1
  GI50: > 100 µM (inactive)
CCRF-CEM
  GI50: > 100 µM (inactive)
COLO 205
  GI50: > 100 µM (inactive)
DLD-1
  GI50: > 100 µM (inactive)
DMS-114
  GI50: > 100 µM (inactive)
DMS-273
  GI50: > 100 µM (inactive)
EKVX
  GI50: > 100 µM (inactive)
HCT-116
  GI50: > 100 µM (inactive)
HCT-15
  GI50: > 100 µM
HL-60
  GI50: > 100 µM (inactive)
HOP-18
  GI50: > 100 µM (inactive)
HOP-62
  GI50: > 100 µM (inactive)
HOP-92
  GI50: > 100 µM (inactive)
HT-29
  GI50: > 100 µM (inactive)
IGROV-1
  GI50: > 100 µM (inactive)
K562
  GI50: > 100 µM (inactive)
KM-20L2
  GI50: > 100 µM (inactive)
KM12
  GI50: > 100 µM (inactive)
LOX IMVI
  GI50: > 100 µM (inactive)
LXFL 529
  GI50: > 100 µM (inactive)
M14
  GI50: > 100 µM (inactive)
M19-MEL
  GI50: > 100 µM (inactive)
MOLT-4
  GI50: > 100 µM (inactive)
Malme-3M
  GI50: > 100 µM (inactive)
NCI-H226
  GI50: > 100 µM (inactive)
NCI-H23
  GI50: > 100 µM (inactive)
NCI-H460
  GI50: > 100 µM (inactive)
NCI-H522
  GI50: 31.3 µM (inactive)
OVCAR-3
  GI50: > 100 µM (inactive)
OVCAR-4
  GI50: > 100 µM (inactive)
OVCAR-5
  GI50: > 100 µM (inactive)
OVCAR-8
  GI50: > 100 µM (inactive)
RPMI-8226
  GI50: > 100 µM (inactive)
RXF 393
  GI50: > 100 µM (inactive)
RXF 631
  GI50: > 100 µM (inactive)
SF-268
  GI50: > 100 µM (inactive)
SF-295
  GI50: > 100 µM (inactive)
SF-539
  GI50: > 100 µM (inactive)
SK-MEL-28
  GI50: > 100 µM (inactive)
SK-MEL-2
  GI50: > 100 µM (inactive)
SK-MEL-5
  GI50: > 100 µM (inactive)
SK-OV-3
  GI50: > 100 µM (inactive)
SN12C
  GI50: > 100 µM (inactive)
SNB-19
  GI50: > 100 µM (inactive)
SNB-75
  GI50: > 100 µM (inactive)
SNB-78
  GI50: > 100 µM (inactive)
SW-620
  GI50: > 100 µM (inactive)
TK-10
  GI50: > 100 µM (inactive)
U-251
  GI50: > 100 µM (inactive)
UACC-257
  GI50: > 100 µM (inactive)
UACC-62
  GI50: > 100 µM (inactive)
UO-31
  GI50: > 100 µM (inactive)
XF498
  GI50: > 100 µM (inactive)

## Cc1ccc(NC(=O)/C(=N\NC(N)=S)C(C#N)c2ccccc2C)cc1C (stereo not drawn)
786-0
  GI50: > 100 µM (inactive)
A498
  GI50: > 100 µM (inactive)
A549
  GI50: > 100 µM (inactive)
ACHN
  GI50: > 100 µM (inactive)
CAKI-1
  GI50: > 100 µM (inactive)
CCRF-CEM
  GI50: > 100 µM (inactive)
COLO 205
  GI50: > 100 µM (inactive)
DLD-1
  GI50: > 100 µM (inactive)
DMS-114
  GI50: > 100 µM (inactive)
DMS-273
  GI50: > 100 µM (inactive)
EKVX
  GI50: > 100 µM (inactive)
HCC 2998
  GI50: > 100 µM (inactive)
HCT-116
  GI50: > 100 µM (inactive)
HCT-15
  GI50: > 100 µM
HL-60
  GI50: > 100 µM (inactive)
HOP-18
  GI50: > 100 µM (inactive)
HOP-62
  GI50: > 100 µM (inactive)
HOP-92
  GI50: > 100 µM (inactive)
HT-29
  GI50: > 100 µM (inactive)
IGROV-1
  GI50: > 100 µM (inactive)
K562
  GI50: > 100 µM (inactive)
KM-20L2
  GI50: > 100 µM (inactive)
KM12
  GI50: > 100 µM (inactive)
LXFL 529
  GI50: > 100 µM (inactive)
M14
  GI50: > 100 µM (inactive)
M19-MEL
  GI50: > 100 µM (inactive)
MOLT-4
  GI50: > 100 µM (inactive)
Malme-3M
  GI50: > 100 µM (inactive)
NCI-H226
  GI50: > 100 µM (inactive)
NCI-H23
  GI50: > 100 µM (inactive)
NCI-H460
  GI50: > 100 µM (inactive)
NCI-H522
  GI50: > 100 µM (inactive)
OVCAR-3
  GI50: > 100 µM (inactive)
OVCAR-4
  GI50: > 100 µM (inactive)
OVCAR-5
  GI50: > 100 µM (inactive)
OVCAR-8
  GI50: > 100 µM (inactive)
RPMI-8226
  GI50: > 100 µM (inactive)
RXF 631
  GI50: > 100 µM (inactive)
SF-268
  GI50: > 100 µM (inactive)
SF-295
  GI50: > 100 µM (inactive)
SF-539
  GI50: > 100 µM (inactive)
SK-MEL-28
  GI50: > 100 µM (inactive)
SK-MEL-2
  GI50: > 100 µM (inactive)
SK-MEL-5
  GI50: > 100 µM (inactive)
SK-OV-3
  GI50: > 100 µM (inactive)
SN12C
  GI50: > 100 µM (inactive)
SNB-19
  GI50: > 100 µM (inactive)
SNB-75
  GI50: 66.5 µM (inactive)
SNB-78
  GI50: > 100 µM (inactive)
SR
  GI50: > 100 µM (inactive)
SW-620
  GI50: > 100 µM (inactive)
TK-10
  GI50: > 100 µM (inactive)
U-251
  GI50: > 100 µM (inactive)
UACC-257
  GI50: > 100 µM (inactive)
UACC-62
  GI50: > 100 µM (inactive)
UO-31
  GI50: > 100 µM (inactive)
XF498
  GI50: > 100 µM (inactive)
